Article PMC2915760 (Bioorganic & medicinal chemistry, 2010)

Molecular target: T1, Lyp-CCPGCC (lymphoid-specific protein tyrosine phosphatase, PTPN22, engineered insertion mutant) (Homo sapiens, UniProt Q9Y2R2, INS199CCPGCC)
T1 sequence (Q9Y2R2 with tags, fused parts or gaps INS199CCPGCC): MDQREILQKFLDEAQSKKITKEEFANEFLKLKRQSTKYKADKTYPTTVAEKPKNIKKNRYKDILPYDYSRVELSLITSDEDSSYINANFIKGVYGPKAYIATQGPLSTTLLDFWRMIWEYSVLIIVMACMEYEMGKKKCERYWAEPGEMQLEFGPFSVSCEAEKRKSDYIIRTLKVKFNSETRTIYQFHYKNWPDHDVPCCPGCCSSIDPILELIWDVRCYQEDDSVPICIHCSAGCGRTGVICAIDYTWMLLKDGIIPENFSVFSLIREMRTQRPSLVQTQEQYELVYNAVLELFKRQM
Test: FlAsH fluorescence titration with purified Lyp-CCPGCC
Format: binding

O=C1OC2(c3ccccc31)c1ccc(O)c([As]3SCCS3)c1Oc1c2ccc(O)c1[As]1SCCS1 [FlAsH]
Kd: 68 nM
